These results are taken from patent US20170071880A1, “SELEGILINE TRANSDERMAL SYSTEM” (KAT Transdermals LLC, priority 2012, published 2017).

The nature of this series: Solubility of selegiline in pressure sensitive adhesive polymers. Format: physicochemical. From the text:
The invention pertains to the transdermal delivery of selegiline for the treatment of depression, Parkinson's disease and other neurologic conditions. […] Acrylic pressure sensitive adhesives (PSAs) that could be used with the invention include those based on pure acrylate monomers as well as acrylate copolymers and terpolymers using for example as the comonomers vinyl acetate or hydrocarbon copolymers which may also include pacifiers and other pressure sensitive adhesive modifiers. Commercially available acrylate copolymers include those made by Henkel Corporation under the trade names of Duro-Tak 87-900A (DT 87-900A), 87-901A, 87-9301, 87-9088, and 87-4098. […] Of specific interest is the pressure sensitive adhesive DT 87-4098 which is the only copolymer mentioned above that contains vinyl acetate and which has low levels of peel, shear and tack which can then be enhanced by the incorporation of large amounts of plasticizing liquids such as selegiline. Since these polymers are not crosslinked, the resistance of movement of the drug through the patch itself will be very low thus enhancing the permeability through human skin. Thus it is an object of our invention to use non-crosslinked acrylate copolymer PSAs in matrix selegiline patches, especially PSA DT 87-4098, to provide for excellent permeation of selegiline through human skin. Another object of our invention is to use humectant/solubilizers in the matrix patch to provide for stabilization of the patch through absorption and immobilization of the liquids in the patch. For example such humectant/solubilizers include PVP, PVP/VA, hydroxypropylcellulose, hydroxyethylcellulose, hydroxypropylmethylcellulose, methyl cellulose, Sodium carboxymethyl cellulose, colloidal silica, Xantham Gum, and polyacrylic acid. By experiment we determined that the best humectant/solubilizer for matrix patches delivering selegiline is PVP/VA. PVP/VA has the ability to properly disperse/solubilize within the PSA matrix and to provide additional stability to the matrix, absorb the liquid selegiline base and prevent syneresis. In prior art, PVP was specifically excluded from the use in selegiline patches, which in our case, where we use non crosslinked acrylic PSAs, are shown to be very important to the development of a patch of our invention. It is another object of our invention to incorporate in the matrix PSA humectant/solubilizers, and especially PVP/VA, in the amounts of between 3 to 30% on the weight of the PSA, to provide for better syneresis, adhesion to skin and more rapid permeation of the drug through the skin. The ability of the composition of our patch is such that volatile and non-volatile enhancers can be included in the formulations, which are specifically excluded in the prior art Volatile enhancers for the case of our invention are liquids that have a vapor pressure at 20 degrees Centigrade which is higher than 0.2 mm Hg. Volatile enhancers such as Dimethylsulfoxide (DMSO), decylmethylsulfoxide lactates such as ethyl lactate and propyl lactate isobutyl lactate and lauryl lactate can be incorporated in the PSA matrix system of the selegiline patch of our invention. Thus it is another object of our invention to incorporate volatile enhancers in our patch so as to increase the permeation of selegiline through the human skin and reduce the size of the patch. […]

`C#CCN(C)[C@H](C)Cc1ccccc1` [selegiline]: the “solubility of selegiline in PSA” value (in non-crosslinked acrylic copolymer PSA DT 87-4098) is listed as 59 wt %; the “solubility of selegiline in PSA” value (in non-crosslinked acrylic copolymer PSA DT 87-9088) was 118 wt %; the “solubility of selegiline in PSA” value (in non-crosslinked acrylic copolymer PSA DT 87-9301) came to 81 wt %; the “solubility of selegiline in PSA” value (in polyisobutylene (PIB) PSA) was 8 wt %; the “solubility of selegiline in PSA” value (in silicone PSA) is reported as 6 wt %.
